This passage reports relative viability results from the supplement of paper PMC10307832.

Experiment in all cases: relative viability (nuclei count vs DMSO), 5 days (fraction); higher = more cells survive
Compound in the experiment “Neratinib + Vorinostat”: CCOc1cc2ncc(C#N)c(Nc3ccc(OCc4ccccn4)c(Cl)c3)c2cc1NC(=O)/C=C/CN(C)C [Neratinib] + O=C(CCCCCCC(=O)Nc1ccccc1)NO [Vorinostat] (partner 1 µM)
The method, boiled down: (§1)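 One day after seeding in 1536-well plates, lung cancer cell lines were dosed by pin tool. Dosing was either single-drug or a fixed anchor-drug dose plus five library-drug doses (not always all listed) in √10 steps. After 5 days, nuclei were stained in one fix-and-stain step and counted on 4× images, and relative viability is the nuclei count of treated wells over that of vehicle wells, given as the median of duplicate plates.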

Compound in the experiment “Neratinib + Dasatinib”: CCOc1cc2ncc(C#N)c(Nc3ccc(OCc4ccccn4)c(Cl)c3)c2cc1NC(=O)/C=C/CN(C)C [Neratinib] + Cc1nc(Nc2ncc(C(=O)Nc3c(C)cccc3Cl)s2)cc(N2CCN(CCO)CC2)n1 [Dasatinib] (partner 0.075 µM)
The method, boiled down: as §1

Compound in the experiment “Neratinib + Crizotinib”: CCOc1cc2ncc(C#N)c(Nc3ccc(OCc4ccccn4)c(Cl)c3)c2cc1NC(=O)/C=C/CN(C)C [Neratinib] + C[C@@H](Oc1cc(-c2cnn(C3CCNCC3)c2)cnc1N)c1c(Cl)ccc(F)c1Cl [Crizotinib] (partner 1 µM)
The method, boiled down: as §1

Compound in the experiment “Neratinib + Navitoclax”: CCOc1cc2ncc(C#N)c(Nc3ccc(OCc4ccccn4)c(Cl)c3)c2cc1NC(=O)/C=C/CN(C)C [Neratinib] + CC1(C)CCC(c2ccc(Cl)cc2)=C(CN2CCN(c3ccc(C(=O)NS(=O)(=O)c4ccc(N[C@H](CCN5CCOCC5)CSc5ccccc5)c(S(=O)(=O)C(F)(F)F)c4)cc3)CC2)C1 [Navitoclax] (partner 0.5 µM)
In outline:
as §1

Take NCI-H1734: the relative viability in the experiment with Neratinib + Vorinostat (first compound 0.01 µM) is 0.997; with Neratinib + Vorinostat (first compound 0.03162 µM) it was 0.766; with Neratinib + Vorinostat (first compound 0.1 µM) it was 0.743; with Neratinib + Vorinostat (first compound 0.3162 µM), 0.752; in the experiment with Neratinib + Vorinostat (first compound 1 µM), 0.6; with Neratinib + Dasatinib (first compound 0.01 µM), 0.475. The relative viability with Neratinib + Dasatinib (first compound 0.03162 µM) stood at 0.466; with Neratinib + Dasatinib (first compound 0.1 µM), 0.424; with Neratinib + Dasatinib (first compound 0.3162 µM), 0.38; in the experiment with Neratinib + Dasatinib (first compound 1 µM), 0.345; in the experiment with Neratinib + Crizotinib (first compound 0.01 µM) it was 0.838; in the experiment with Neratinib + Crizotinib (first compound 0.03162 µM), 0.722. The relative viability with Neratinib + Crizotinib (first compound 0.1 µM) stood at 0.535; with Neratinib + Crizotinib (first compound 0.3162 µM), 0.646; with Neratinib + Crizotinib (first compound 1 µM), 0.446; with Neratinib + Navitoclax (first compound 0.01 µM), 0.902; with Neratinib + Navitoclax (first compound 0.03162 µM), 1.02; with Neratinib + Navitoclax (first compound 0.1 µM) it was 0.789. Further, the relative viability in the experiment with Neratinib + Navitoclax (first compound 0.3162 µM) was determined as 0.818; in the experiment with Neratinib + Navitoclax (first compound 1 µM), 0.557.

NCI-H322M: the relative viability with Neratinib + Vorinostat (first compound 0.01 µM) was 0.98; in the experiment with Neratinib + Vorinostat (first compound 0.03162 µM), 0.859; with Neratinib + Vorinostat (first compound 0.1 µM), 0.822; with Neratinib + Vorinostat (first compound 0.3162 µM) it was 0.524; in the experiment with Neratinib + Vorinostat (first compound 1 µM) it was 0.445; with Neratinib + Dasatinib (first compound 0.01 µM) it was 0.24. Also, the relative viability with Neratinib + Dasatinib (first compound 0.03162 µM) was 0.237; in the experiment with Neratinib + Dasatinib (first compound 0.1 µM), 0.237; with Neratinib + Dasatinib (first compound 0.3162 µM) it was 0.228; with Neratinib + Dasatinib (first compound 1 µM) it was 0.293; with Neratinib + Crizotinib (first compound 0.03162 µM) it was 1.02; in the experiment with Neratinib + Crizotinib (first compound 0.1 µM), 0.791. In addition, the relative viability with Neratinib + Crizotinib (first compound 0.3162 µM) was 0.659; with Neratinib + Crizotinib (first compound 1 µM), 0.291; with Neratinib + Navitoclax (first compound 0.01 µM), 1.18; with Neratinib + Navitoclax (first compound 0.03162 µM) it was 1.17; with Neratinib + Navitoclax (first compound 0.1 µM), 0.558; with Neratinib + Navitoclax (first compound 0.3162 µM), 0.701. The relative viability with Neratinib + Navitoclax (first compound 1 µM) is 0.627.

For CAL-12T, the relative viability came out at 0.802 with Neratinib + Vorinostat (first compound 0.01 µM); 0.835 with Neratinib + Vorinostat (first compound 0.03162 µM); 0.553 with Neratinib + Vorinostat (first compound 0.1 µM); 0.436 in the experiment with Neratinib + Vorinostat (first compound 0.3162 µM); 0.198 with Neratinib + Vorinostat (first compound 1 µM); 0.325 with Neratinib + Dasatinib (first compound 0.01 µM). Further, the relative viability in the experiment with Neratinib + Dasatinib (first compound 0.03162 µM) worked out at 0.475; in the experiment with Neratinib + Dasatinib (first compound 0.1 µM) it was 0.212; with Neratinib + Dasatinib (first compound 0.3162 µM), 0.13; with Neratinib + Dasatinib (first compound 1 µM), 0.122; in the experiment with Neratinib + Crizotinib (first compound 0.01 µM), 0.84; in the experiment with Neratinib + Crizotinib (first compound 0.03162 µM) it was 0.945. For the same cell line, the relative viability with Neratinib + Crizotinib (first compound 0.1 µM) is 0.408; in the experiment with Neratinib + Crizotinib (first compound 0.3162 µM), 0.256; with Neratinib + Crizotinib (first compound 1 µM) it was 0.206; with Neratinib + Navitoclax (first compound 0.01 µM), 1.27; with Neratinib + Navitoclax (first compound 0.03162 µM) it was 1.59; with Neratinib + Navitoclax (first compound 0.1 µM), 0.94. The relative viability worked out at 0.632 in the experiment with Neratinib + Navitoclax (first compound 0.3162 µM) and 0.232 with Neratinib + Navitoclax (first compound 1 µM).

Regarding HCC-78, the relative viability with Neratinib + Vorinostat (first compound 0.01 µM) was determined as 0.547; with Neratinib + Vorinostat (first compound 0.03162 µM), 0.408; in the experiment with Neratinib + Vorinostat (first compound 0.1 µM), 0.352; with Neratinib + Vorinostat (first compound 0.3162 µM), 0.362; with Neratinib + Vorinostat (first compound 1 µM), 0.28; with Neratinib + Dasatinib (first compound 0.01 µM), 0.5. Besides, the relative viability with Neratinib + Dasatinib (first compound 0.03162 µM) amounted to 0.363; in the experiment with Neratinib + Dasatinib (first compound 0.1 µM), 0.342; with Neratinib + Dasatinib (first compound 0.3162 µM), 0.292; with Neratinib + Dasatinib (first compound 1 µM) it was 0.276; in the experiment with Neratinib + Crizotinib (first compound 0.01 µM) it was 0.325; in the experiment with Neratinib + Crizotinib (first compound 0.03162 µM), 0.3. Also, the relative viability in the experiment with Neratinib + Crizotinib (first compound 0.1 µM) was 0.284; with Neratinib + Crizotinib (first compound 0.3162 µM) it was 0.264; with Neratinib + Crizotinib (first compound 1 µM), 0.225; with Neratinib + Navitoclax (first compound 0.01 µM), 0.747; with Neratinib + Navitoclax (first compound 0.1 µM) it was 0.702; with Neratinib + Navitoclax (first compound 0.3162 µM) it was 0.663. Also, in the experiment with Neratinib + Navitoclax (first compound 1 µM), the relative viability came out at 0.231.

Take NCI-H2087: the relative viability was 0.783 in the experiment with Neratinib + Vorinostat (first compound 0.01 µM); 0.566 in the experiment with Neratinib + Vorinostat (first compound 0.03162 µM); 0.538 with Neratinib + Vorinostat (first compound 0.1 µM); 0.711 with Neratinib + Vorinostat (first compound 0.3162 µM); 0.573 with Neratinib + Vorinostat (first compound 1 µM); 0.936 with Neratinib + Dasatinib (first compound 0.01 µM). Moreover, the relative viability was 0.888 in the experiment with Neratinib + Dasatinib (first compound 0.03162 µM); 0.605 with Neratinib + Dasatinib (first compound 0.1 µM); 0.584 with Neratinib + Dasatinib (first compound 0.3162 µM); 0.373 with Neratinib + Dasatinib (first compound 1 µM); 1.02 with Neratinib + Crizotinib (first compound 0.01 µM); 1.03 with Neratinib + Crizotinib (first compound 0.03162 µM). The relative viability was determined as 0.978 with Neratinib + Crizotinib (first compound 0.3162 µM); 0.667 in the experiment with Neratinib + Crizotinib (first compound 1 µM); 1.04 with Neratinib + Navitoclax (first compound 0.01 µM); 0.896 with Neratinib + Navitoclax (first compound 0.03162 µM); 1 with Neratinib + Navitoclax (first compound 0.3162 µM); 0.444 in the experiment with Neratinib + Navitoclax (first compound 1 µM).
